# Results as given in ChEMBL document CHEMBL4346765, “Design, synthesis and biological evaluation of novel dithiocarbamate-substituted diphenylaminopyrimidine derivatives as BTK inhibitors” (Bioorg Med Chem, 2019).
# The source made the active and inactive calls. The calls are words filed in the database; no cut-off is given here.
# What was measured:
# [1] = target: T1, Tyrosine-protein kinase BTK (Homo sapiens, UniProt Q06187); assay: Inhibition of BTK in anti-IgM-stimulated human Ramos cells assessed as reduction in Erk phosphorylation at 0.01 to 10 uM incubated for 4 hrs followed by anti-IgM stimulation for 30 mins by Western blot analysis; type: cell-based
# [2] = target: T1, Tyrosine-protein kinase BTK; assay: Inhibition of BTK in anti-IgM-stimulated human Ramos cells assessed as reduction in autophosphorylation at Y223 residues at 0.01 to 10 uM incubated for 4 hrs followed by anti-IgM stimulation for 30 mins by Western blot analysis; type: cell-based
# [3] = Toxicity in NOD/SCID mouse xenografted with human Ramos cells assessed as induction of morphological lesions in lung at 60 mg/kg/day, ip administered daily for 14 days by H and E staining based histologic analysis; type: organism-based; conditions: in vivo, 336 h
# KARPAS-299 = assay: Cytotoxicity against human KARPAS299 cells assessed as reduction in cell viability at 0.1 to 40 uM incubated for 48 hrs by MTS assay; type: functional, cell-based; conditions: KARPAS-299, 48 h
# BJ = assay: Cytotoxicity against human BJ cells assessed as reduction in cell viability at 0.1 to 40 uM incubated for 48 hrs by MTS assay; type: cell-based
# A549 = assay: Cytotoxicity against human A549 cells assessed as reduction in cell viability at 0.1 to 40 uM incubated for 48 hrs by MTS assay; type: functional, cell-based; conditions: A549, 48 h
# HeLa = assay: Cytotoxicity against human HeLa cells assessed as reduction in cell viability at 0.1 to 40 uM incubated for 48 hrs by MTS assay; type: functional, cell-based
# MDA-MB-231 = assay: Cytotoxicity against human MDA-MB-231 cells assessed as reduction in cell viability at 0.1 to 40 uM incubated for 48 hrs by MTS assay; type: functional, cell-based; conditions: MDA-MB-231, 48 h
# PC-3 = assay: Cytotoxicity against human PC3 cells assessed as reduction in cell viability at 0.1 to 40 uM incubated for 48 hrs by MTS assay; type: functional, cell-based; conditions: PC-3, 48 h
# K562 = assay: Cytotoxicity against human K562 cells assessed as reduction in cell viability at 0.1 to 40 uM incubated for 48 hrs by MTS assay; type: functional, cell-based; conditions: K562, 48 h
# 786-0 = assay: Cytotoxicity against human 786-O cells assessed as reduction in cell viability at 0.1 to 40 uM incubated for 48 hrs by MTS assay; type: functional, cell-based; conditions: 786-0, 48 h
# Raji [4] = assay: Potency index,ratio of Spebrutinib IC50 to compound IC50 for antiproliferative activity against human Raji cells assessed as reduction in cell growth incubated for 48 hrs by MTS assay; type: functional
# NCI-H3122 = assay: Cytotoxicity against human NCI-H3122 cells assessed as reduction in cell viability at 0.1 to 40 uM incubated for 48 hrs by MTS assay; type: functional, cell-based; conditions: NCI-H3122, 48 h
# HT-29 = assay: Cytotoxicity against human HT-29 cells assessed as reduction in cell viability at 0.1 to 40 uM incubated for 48 hrs by MTS assay; type: functional, cell-based; conditions: HT-29, 48 h
# Jurkat = assay: Cytotoxicity against human Jurkat cells assessed as reduction in cell viability at 0.1 to 40 uM incubated for 48 hrs by MTS assay; type: functional, cell-based
# [5] = Toxicity in NOD/SCID mouse xenografted with human Ramos cells assessed as induction of morphological lesions in spleen at 60 mg/kg/day, ip administered daily for 14 days by H and E staining based histologic analysis; type: organism-based; conditions: in vivo, 336 h
# [6] = Toxicity in NOD/SCID mouse xenografted with human Ramos cells assessed as induction of morphological lesions in heart at 60 mg/kg/day, ip administered daily for 14 days by H and E staining based histologic analysis; type: organism-based; conditions: in vivo, 336 h
# [7] = Toxicity in NOD/SCID mouse xenografted with human Ramos cells assessed as induction of morphological lesions in kidney at 60 mg/kg/day, ip administered daily for 14 days by H and E staining based histologic analysis; type: organism-based; conditions: in vivo, 336 h
# Raji [8] = assay: Antiproliferative activity against human Raji cells assessed as reduction in cell growth incubated for 48 hrs by MTS assay
# MCF-10A = assay: Cytotoxicity against human MCF10A cells assessed as reduction in cell viability at 0.1 to 40 uM incubated for 48 hrs by MTS assay; type: cell-based
# Ramos [9] = assay: Antiproliferative activity against human Ramos cells assessed as reduction in cell growth incubated for 48 hrs by MTS assay
# HEF = assay: Cytotoxicity against human HEF cells assessed as reduction in cell viability at 0.1 to 40 uM incubated for 48 hrs by MTS assay; type: cell-based
# Ramos [10] = assay: Antitumor activity in human Ramos cells xenografted in NOD/SCID mouse assessed as reduction in tumor growth at 60 mg/kg/day, ip administered daily for 14 days; type: functional; conditions: 336 h, read-out: TGI
# Raji [11] = assay: Potency index,ratio of Ibrutinib IC50 to compound IC50 for antiproliferative activity against human Raji cells assessed as reduction in cell growth incubated for 48 hrs by MTS assay; type: functional
# Ramos [12] = assay: Potency index,ratio of Ibrutinib IC50 to compound IC50 for antiproliferative activity against human Ramos cells assessed as reduction in cell growth incubated for 48 hrs by MTS assay; type: functional
# [13] = target: T1, Tyrosine-protein kinase BTK; assay: Inhibition of human recombinant full length BTK expressed in baculovirus in Sf9 insect cells using Poly (4:1 Glu, Tyr) as substrate incubated for 1 hr by ADP-Glo assay
# Ramos [14] = assay: Antitumor activity in human Ramos cells xenografted in NOD/SCID mouse assessed as reduction in tumor growth at 30 mg/kg/day, ip administered daily for 14 days; type: functional; conditions: 336 h, read-out: TGI
# MCF7 = assay: Cytotoxicity against human MCF7 cells assessed as reduction in cell viability at 0.1 to 40 uM incubated for 48 hrs by MTS assay; type: functional, cell-based; conditions: MCF7, 48 h
# [15] = Cytotoxicity against human HELF cells assessed as reduction in cell viability at 0.1 to 40 uM incubated for 48 hrs by MTS assay; type: cell-based
# HepG2 = assay: Cytotoxicity against human HepG2 cells assessed as reduction in cell viability at 0.1 to 40 uM incubated for 48 hrs by MTS assay; type: functional, cell-based; conditions: HepG2, 48 h
# Ramos [16] = assay: Potency index,ratio of Spebrutinib IC50 to compound IC50 for antiproliferative activity against human Ramos cells assessed as reduction in cell growth incubated for 48 hrs by MTS assay; type: functional
# [17] = Toxicity in NOD/SCID mouse xenografted with human Ramos cells assessed as induction of morphological lesions in liver at 60 mg/kg/day, ip administered daily for 14 days by H and E staining based histologic analysis; type: organism-based; conditions: in vivo, 336 h
# [18] = target: T1, Tyrosine-protein kinase BTK; assay: Inhibition of BTK in anti-IgM-stimulated human Ramos cells assessed as reduction in Akt phosphorylation at 0.01 to 10 uM incubated for 4 hrs followed by anti-IgM stimulation for 30 mins by Western blot analysis; type: cell-based
# NCI-H1299 = assay: Cytotoxicity against human H1299 cells assessed as reduction in cell viability at 0.1 to 40 uM incubated for 48 hrs by MTS assay; type: functional, cell-based; conditions: NCI-H1299, 48 h
# [19] = Toxicity in NOD/SCID mouse xenografted with human Ramos cells assessed as changes in body weight at 30 to 60 mg/kg/day, ip administered daily for 14 days; type: organism-based; conditions: in vivo, 336 h
# Ramos [20] = assay: Induction of apoptosis in human Ramos cells assessed as increase in cleaved PARP1 protein expression at 0.01 to 10 uM incubated for 8 hrs by Western blotting analysis; type: functional, cell-based
# [21] = target: T1, Tyrosine-protein kinase BTK; assay: Inhibition of BTK in anti-IgM-stimulated human Ramos cells assessed as reduction in PLCgamma2 phosphorylation at Y1217 residues at 0.01 to 10 uM incubated for 4 hrs followed by anti-IgM stimulation for 30 mins by Western blot analysis; type: cell-based
# T1 sequence (Q06187 whole entry): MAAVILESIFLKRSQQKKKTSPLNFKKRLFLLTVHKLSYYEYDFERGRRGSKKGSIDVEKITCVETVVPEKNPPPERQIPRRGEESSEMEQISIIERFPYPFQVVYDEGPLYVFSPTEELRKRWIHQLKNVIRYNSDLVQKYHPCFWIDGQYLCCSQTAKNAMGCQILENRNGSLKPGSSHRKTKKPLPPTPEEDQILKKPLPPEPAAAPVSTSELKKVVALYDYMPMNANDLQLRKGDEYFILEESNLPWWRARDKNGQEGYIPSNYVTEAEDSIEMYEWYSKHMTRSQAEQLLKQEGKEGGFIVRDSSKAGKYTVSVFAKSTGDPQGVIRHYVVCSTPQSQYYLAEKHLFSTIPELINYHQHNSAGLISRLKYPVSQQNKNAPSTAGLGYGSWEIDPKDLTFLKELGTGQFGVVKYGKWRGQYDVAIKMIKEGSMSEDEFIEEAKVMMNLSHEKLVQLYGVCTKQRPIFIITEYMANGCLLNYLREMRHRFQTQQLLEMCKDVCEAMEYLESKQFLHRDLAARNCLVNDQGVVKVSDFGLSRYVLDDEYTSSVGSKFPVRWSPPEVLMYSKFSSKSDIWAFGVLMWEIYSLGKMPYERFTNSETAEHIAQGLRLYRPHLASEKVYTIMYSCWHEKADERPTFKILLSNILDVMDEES
smiles,measurement,setting,value
C=CC(=O)Nc1cccc(Nc2nc(Nc3ccc(OCCSC(=S)NCc4cccnc4)cc3)ncc2F)c1,inhibition,[1],inactive
same,inhibition,[2],Active
same,Activity,[3],Non-Toxic
same,IC50,KARPAS-299,> 40 µM
same,IC50,BJ,12.8 µM
same,IC50,A549,3.2 µM
same,IC50,HeLa,8.74 µM
same,IC50,MDA-MB-231,35.4 µM
same,IC50,PC-3,8.25 µM
same,IC50,K562,3.27 µM
same,IC50,786-0,4.96 µM
same,Ratio IC50,Raji [4],10
same,IC50,NCI-H3122,33.4 µM
same,IC50,HT-29,10.2 µM
same,IC50,Jurkat,2.49 µM
same,Activity,[5],Non-Toxic
same,Activity,[6],Non-Toxic
same,Activity,[7],Non-Toxic
same,IC50,Raji [8],0.706 µM
same,IC50,MCF-10A,8.62 µM
same,IC50,Ramos [9],0.357 µM
same,IC50,HEF,28.4 µM
same,inhibition in vivo at 60 mg/kg/day,Ramos [10],57.8%
same,Ratio IC50,Raji [11],10
same,Ratio IC50,Ramos [12],10
same,IC50,[13],0.00115 µM
same,inhibition in vivo at 30 mg/kg/day,Ramos [14],21.5%
same,IC50,MCF7,17.4 µM
same,IC50,[15],19.3 µM
same,IC50,HepG2,16.2 µM
same,Ratio IC50,Ramos [16],10
same,Activity,[17],Non-Toxic
same,inhibition,[18],Active
same,IC50,NCI-H1299,17.9 µM
same,Activity,[19],Non-Toxic
same,Activity,Ramos [20],Active
same,inhibition,[21],Dose-dependent effect
